One may read the IC50 as the midpoint of a concentration-inhibition curve.

Test [1] has as its target T1, BRD4 bromo domain 1 [BRD4(1)] (Homo sapiens, UniProt O60885).
T1 construct: N-terminally His6-tagged BRD4(1) (amino acids 67-152); made in house; host or cells: E. coli
The test can be described thus: BRD4/acetylated peptide H4 binding assay (TR-FRET), BRD4 bromo domain 1. The conditions noted are these: inhibition of BRD4(1)/Ac-H4 peptide interaction. Summed up:
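TR-FRET (665/620 nm ratio) measuring displacement of biotinylated tetra-acetylated H4 peptide from His6-BRD4(1) (aa 67-152, E. coli; typically 10 nM) at pH 7.5. Compound (11 concentrations, 0.1 nM–20 μM, duplicates) was preincubated 10 min at 22°C, then 1 h at 22°C and ≥3 h at 4°C; IC50 from 4-parameter fit normalized to DMSO and no-BRD4 controls.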
(In general: TR-FRET usually uses a lanthanide donor and a delayed reading to cut background.)

The test system of test [2] is CHL-1 cells. The test is described as follows: Cell proliferation assay (alamarBlue), CHL-1. Particulars: Homo sapiens; CHL-1 (melanoma, BRAF wild-type), 96 hours. The class given is cell-based. The procedure: In accordance with the invention, the ability of the substances to inhibit cell proliferation was determined. Cell viability was determined by means of the alamarBlue® reagent (Invitrogen) in a Victor X3 Multilabel Reader (Perkin Elmer). The excitation wavelength was 530 nm and the emission wavelength […].
The CHL-1 cells (ATCC, CRL-9446) were sown at a concentration of 1000 cells/well in 100 μl of growth medium (DMEM with glutamine, 10% FCS) on 96-well microtitre plates.
After overnight incubation at 37° C., the fluorescence values were determined (CI values). Then the plates were treated with various substance dilutions (1E-5 M, 3E-6 M, 1E-6 M, 3E-7 M, 1E-7 M, 3E-8 M, 1E-8 M) and incubated at 37° C. over 96 hours (MOLM-13, B16F10, CHL-1 cells) or 120 hours (MOLP-8 cells). Subsequently, the fluorescence values were determined (CO values). For the data analysis, the CI values were subtracted from the CO values and the results were compared between cells which had been treated with various dilutions of the substance or only with buffer solution. The IC50 values (substance concentration needed for 50% inhibition of cell proliferation) were calculated therefrom.

On to `C[C@@H]1C(=O)N(C)c2ccc(Nc3ccc4c(c3)S(=O)(=O)NC4)nc2N1C1CCOCC1` [Example 56, (3R)-6-[(1,1-dioxido-2,3-dihydro-1,2-benzothiazol-6-yl)amino]-1,3-dimethyl-4-(tetrahydro-2H-pyran-4-yl)-3,4-dihydropyrido[2,3-b]pyrazin-2(1H)-one], for which the IC50 came out at 112 nM in test [1] and 181 nM in test [2].

On to `C[C@@H]1C(=O)N(C)c2ccc(Nc3cccc(S(=O)(=O)NC4CCN(C)CC4)c3)nc2N1C1CCN(C(=O)OC(C)(C)C)CC1` [Example 57, tert-butyl 4-[(3R)-1,3-dimethyl-6-({3-[(1-methylpiperidin-4-yl)sulphamoyl]phenyl}-amino)-2-oxo-2,3-dihydro-pyrido[2,3-b]pyrazin-4(1H)-yl]piperidine-1-carboxylate], for which the IC50 worked out at 114 nM in test [1] and 175 nM in test [2].

As to `C[C@@H]1C(=O)N(C)c2ccc(Nc3cccc(S(N)(=O)=O)c3)nc2N1C1CCOCC1` [Example 58, 3-{[(3R)-1,3-dimethyl-2-oxo-4-(tetrahydro-2H-pyran-4-yl)-1,2,3,4-tetrahydropyrido[2,3-b]pyrazin-6-yl]amino}-benzenesulphonamide], the results for the half-maximal inhibitory concentration (IC50) in test [1] and in test [2] were 139 nM and 299 nM, respectively.

As to `C[C@@H]1C(=O)N(C)c2ccc(Nc3cccc(S(=O)(=O)NCCN(C)C)c3)nc2N1C1CCN(C(=O)OC(C)(C)C)CC1` [Example 59, tert-butyl 4-[(3R)-6-[(3-{[2-(dimethylamino)ethyl]-sulphamoyl}phenyl)amino]-1,3-dimethyl-2-oxo-2,3-dihydropyrido[2,3-b]pyrazin-4(1H)-yl]piperidine-1-carboxylate], the values for the half-inhibitory concentration (IC50) in test [1] and in test [2] were 156 nM and 204 nM, respectively.

Turning to `C[C@@H]1C(=O)N(C)c2ccc(Nc3cccc(C(=O)N[C@H]4CC[C@H](N5CCN(CC6CC6)CC5)CC4)c3)nc2N1Cc1ccccc1` [Example 72, 3-{[(3R)-4-benzyl-1,3-dimethyl-2-oxo-1,2,3,4-tetrahydropyrido[2,3-b]pyrazin-6-yl]amino}-N-{trans-4-[4-(cyclo-propylmethyl)piperazin-1-yl]cyclohexyl}benzamide], the IC50 in test [1] amounted to 62 nM; in test [2] it was 106 nM.

Regarding `C[C@@H]1C(=O)N(C)c2ccc(Nc3cccc(C(=O)NC4CCN(C)CC4)c3)nc2N1Cc1ccccc1` [Example 73, 3-{[(3R)-4-benzyl-1,3-dimethyl-2-oxo-1,2,3,4-tetrahydropyrido[2,3-b]pyrazin-6-yl]amino}-N-(1-methylpiperidin-4-yl)benzamide], the results for the IC50 in test [1] and in test [2] were 77 nM and 80 nM, respectively.

In the case of `C[C@@H]1C(=O)N(C)c2ccc(Nc3cccc(C(=O)NCCN4CCN(C)CC4)c3)nc2N1Cc1ccccc1` [Example 74, 3-{[(3R)-4-benzyl-1,3-dimethyl-2-oxo-1,2,3,4-tetrahydropyrido[2,3-b]pyrazin-6-yl]amino}-N-[2-(4-methylpiperazin-1-yl)ethyl]benzamide], the half-inhibitory concentration (IC50) in test [1] was 87 nM; in test [2], 83 nM.

Consider `C[C@@H]1C(=O)N(C)c2ccc(Nc3cccc(C(=O)N4CCN(C)CC4)c3)nc2N1Cc1ccccc1` [Example 75], for which the figures for the IC50 in test [1] and in test [2] were 118 nM and 125 nM, respectively.

`C[C@@H]1C(=O)N(C)c2ccc(Nc3cccc(C(=O)N[C@H]4CC[C@H](N5CCN(CC6CC6)CC5)CC4)c3)nc2N1c1ccc(F)cc1` [Example 93]: the values for the half-maximal inhibitory concentration (IC50) in test [1] and in test [2] were 466 nM and 539 nM, respectively.

Consider `C[C@@H]1C(=O)N(C)c2ccc(Nc3cccc(S(=O)(=O)N4CC5(CCC5)C4)c3)nc2N1C1CCNCC1` [Example 122, (3R)-6-{[3-(2-Azaspiro[3.3]hept-2-ylsulphonyl)phenyl]amino}-1,3-dimethyl-4-(piperidin-4-yl)-3,4-dihydropyrido[2,3-b]pyrazin-2(1H)-one], for which the half-inhibitory concentration (IC50) in test [1] was 21 nM; in test [2], 712 nM.

As for `C[C@@H]1C(=O)N(C)c2ccc(Nc3cccc(S(=O)(=O)N(C)C)c3)nc2N1C1CCNCC1` [Example 123, 3-{[(3R)-1,3-dimethyl-2-oxo-4-(piperidin-4-yl)-1,2,3,4-tetrahydropyrido[2,3-b]pyrazin-6-yl]amino}-N,N-dimethylbenzene-sulphonamide], the values for the IC50 in test [1] and in test [2] were 18 nM and 218 nM, respectively.

Regarding `C[C@@H]1C(=O)N(C)c2ccc(Nc3cccc(S(=O)(=O)NC4CCN(C)CC4)c3)nc2N1C1CCNCC1` [Example 124, 3-{[(3R)-1,3-dimethyl-2-oxo-4-(piperidin-4-yl)-1,2,3,4-tetrahydropyrido[2,3-b]pyrazin-6-yl]amino}-N-(1-methylpiperidin-4-yl)benzenesulphonamide], the results for the 50% inhibitory concentration (IC50) in test [1] and in test [2] were 30 nM and greater than 20000 nM, respectively.

For `C[C@@H]1C(=O)N(C)c2ccc(Nc3cccc(S(=O)(=O)N4CCN(C)CC4)c3)nc2N1C1CCNCC1` [Example 125, (3R)-1,3-dimethyl-6-({3-[(4-methylpiperazin-1-yl)sulphonyl]phenyl}amino)-4-(piperidin-4-yl)-3,4-dihydropyrido[2,3-b]pyrazin-2(1H)-one], the 50% inhibitory concentration (IC50) in test [1] came to 37 nM; in test [2] it was 2260 nM.

Turning to `C[C@@H]1C(=O)N(C)c2ccc(Nc3cccc(S(=O)(=O)N4CCN(CC(F)(F)F)CC4)c3)nc2N1C1CCNCC1` [Example 126, (3R)-1,3-dimethyl-4-(piperidin-4-yl)-6-[(3-{[4-(2,2,2-trifluoroethyl)piperazin-1-yl]sulphonyl}phenyl)amino]-3,4-dihydropyrido[2,3-b]pyrazin-2(1H)-one], the IC50 in test [1] came out at 38 nM; in test [2], 202 nM.

Take `C[C@@H]1C(=O)N(C)c2ccc(Nc3cccc(S(=O)(=O)N[C@H]4CC[C@H](N5CCN(CC6CC6)CC5)CC4)c3)nc2N1C1CCNCC1` [Example 127, N-{trans-4-[4-(cyclopropylmethyl)piperazin-1-yl]cyclohexyl}-3-{[(3R)-1,3-dimethyl-2-oxo-4-(piperidin-4-yl)-1,2,3,4-tetrahydropyrido[2,3-b]pyrazin-6-yl]amino}-benzenesulphonamide]: the IC50 in test [1] was 47 nM; in test [2], greater than 20000 nM.

For `C[C@@H]1C(=O)N(C)c2ccc(Nc3cccc(S(=O)(=O)N(C)C)c3)cc2N1C1CCNCC1` [Example 129, 3-{[(3R)-1,3-dimethyl-2-oxo-4-(piperidin-4-yl)-1,2,3,4-tetrahydroquinoxalin-6-yl]amino}-N,N-dimethylbenzenesulphon-amide], the IC50 in test [1] came out at 45 nM; in test [2], 945 nM.

As to `C[C@@H]1C(=O)N(C)c2ccc(Nc3cccc(C(=O)N[C@H]4CC[C@H](N5CCN(CC6CC6)CC5)CC4)c3)nc2N1C1CCNCC1` [Example 131, N-{trans-4-[4-(cyclo-propylmethyl)piperazin-1-yl]cyclohexyl}-3-{[(3R)-1,3-dimethyl-2-oxo-4-(piperidin-4-yl)-1,2,3,4-tetrahydropyrido[2,3-b]pyrazin-6-yl]amino}benzamide], the IC50 is 251 nM in test [1] and greater than 20000 nM in test [2].

Take `C[C@@H]1C(=O)N(C)c2ccc(Nc3cccc(C(=O)N(C)C)c3)cc2N1C1CCNCC1` [Example 133, 3-{[(3R)-1,3-dimethyl-2-oxo-4-(piperidin-4-yl)-1,2,3,4-tetrahydroquinoxalin-6-yl]amino}-N,N-dimethylbenzamide]: the IC50 in test [1] is 124 nM; in test [2] it was greater than 10000 nM.

Values taken from patent US20160176867A1, “MODIFIED BET-PROTEIN-INHIBITING DIHYDROQUINOXALINONES AND DIHYDROPYRIDOPYRAZINONES” (BAYER PHARMA AKTIENGESELLSCHAFT, priority 2013, published 2016).
